Assay results published in PubChem BioAssay (NCI).
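Where inhibition never reached the appropriate level, the endpoint shown equals the highest concentration tested. Otherwise, values were interpolated linearly from a five-concentration, 48-hour dose response in 96-well plates. TGI is the concentration that stops growth completely.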

Columns and labels:
Assay in all cases: inhibition of tumour cell growth, NCI panel, 48 h
786-0 renal = tested on: 786-0 renal
A498 renal = tested on: A498 renal
A549 NSCLC = tested on: A549 NSCLC
ACHN renal = tested on: ACHN renal
BT-549 breast = tested on: BT-549 breast
CAKI-1 renal = tested on: CAKI-1 renal
CCRF-CEM leukemia = tested on: CCRF-CEM leukemia
COLO 205 colon = tested on: COLO 205 colon
DU-145 prostate = tested on: DU-145 prostate
EKVX NSCLC = tested on: EKVX NSCLC
HCC-2998 colon = tested on: HCC-2998 colon
HCT-116 colon = tested on: HCT-116 colon
HCT-15 colon = tested on: HCT-15 colon
HL-60(TB) leukemia = tested on: HL-60(TB) leukemia
HOP-62 NSCLC = tested on: HOP-62 NSCLC
HOP-92 NSCLC = tested on: HOP-92 NSCLC
HS 578T breast = tested on: HS 578T breast
HT29 colon = tested on: HT29 colon
IGROV1 ovarian = tested on: IGROV1 ovarian
K-562 leukemia = tested on: K-562 leukemia
KM12 colon = tested on: KM12 colon
LOX IMVI melanoma = tested on: LOX IMVI melanoma
M14 melanoma = tested on: M14 melanoma
MALME-3M melanoma = tested on: MALME-3M melanoma
MCF7 breast = tested on: MCF7 breast
MDA-MB-231 breast = tested on: MDA-MB-231 breast
MDA-MB-435 = tested on: MDA-MB-435
MDA-N = tested on: MDA-N
MOLT-4 leukemia = tested on: MOLT-4 leukemia
NCI-H226 lung = tested on: NCI-H226 lung
NCI-H23 lung = tested on: NCI-H23 lung
NCI-H460 lung = tested on: NCI-H460 lung
NCI-H522 lung = tested on: NCI-H522 lung
NCI/ADR-RES ovarian = tested on: NCI/ADR-RES ovarian
OVCAR-3 ovarian = tested on: OVCAR-3 ovarian
OVCAR-4 ovarian = tested on: OVCAR-4 ovarian
OVCAR-5 ovarian = tested on: OVCAR-5 ovarian
OVCAR-8 ovarian = tested on: OVCAR-8 ovarian
PC-3 prostate = tested on: PC-3 prostate
RPMI-8226 leukemia = tested on: RPMI-8226 leukemia
RXF 393 renal = tested on: RXF 393 renal
SF-268 CNS = tested on: SF-268 CNS
SF-295 CNS = tested on: SF-295 CNS
SF-539 CNS = tested on: SF-539 CNS
SK-MEL-2 melanoma = tested on: SK-MEL-2 melanoma
SK-MEL-28 melanoma = tested on: SK-MEL-28 melanoma
SK-MEL-5 melanoma = tested on: SK-MEL-5 melanoma
SK-OV-3 ovarian = tested on: SK-OV-3 ovarian
SN12C renal = tested on: SN12C renal
SNB-19 CNS = tested on: SNB-19 CNS
SNB-75 CNS = tested on: SNB-75 CNS
SR leukemia = tested on: SR leukemia
SW-620 colon = tested on: SW-620 colon
T-47D breast = tested on: T-47D breast
TK-10 renal = tested on: TK-10 renal
U251 CNS = tested on: U251 CNS
UACC-257 melanoma = tested on: UACC-257 melanoma
UACC-62 melanoma = tested on: UACC-62 melanoma
UO-31 renal = tested on: UO-31 renal

Cc1cc2c(C(C)C)c(O)c(O)c(C=NCC3CCCN4CCCCC34)c2cc1-c1cc2c(C=NCC3CCCN4CCCCC34)c(O)c(O)c(C(C)C)c2cc1C (centres undefined)
TGI (786-0 renal): > 67.9 µM
TGI (A498 renal): > 61.7 µM
TGI (A549 NSCLC): > 75.1 µM
TGI (ACHN renal): 17.9 µM
TGI (BT-549 breast): 36.4 µM
TGI (CAKI-1 renal): 14.6 µM
TGI (CCRF-CEM leukemia): 7.75 µM
TGI (COLO 205 colon): 12.3 µM
TGI (DU-145 prostate): > 64.3 µM
TGI (EKVX NSCLC): 31.8 µM
TGI (HCC-2998 colon): 46.3 µM
TGI (HCT-116 colon): > 100 µM
TGI (HCT-15 colon): 41.3 µM
TGI (HL-60(TB) leukemia): 9.62 µM
TGI (HOP-62 NSCLC): > 38.7 µM
TGI (HOP-92 NSCLC): > 100 µM
TGI (HS 578T breast): 54.5 µM
TGI (HT29 colon): 13.3 µM
TGI (IGROV1 ovarian): 21.6 µM
TGI (K-562 leukemia): 38.2 µM
TGI (KM12 colon): 17.7 µM
TGI (LOX IMVI melanoma): > 49.1 µM
TGI (M14 melanoma): 33.9 µM
TGI (MALME-3M melanoma): 30.2 µM
TGI (MCF7 breast): 37 µM
TGI (MDA-MB-231 breast): 14.7 µM
TGI (MDA-MB-435): 25.8 µM
TGI (MDA-N): 20.9 µM
TGI (MOLT-4 leukemia): 20 µM
TGI (NCI-H226 lung): 43.2 µM
TGI (NCI-H23 lung): 27.1 µM
TGI (NCI-H460 lung): 38.7 µM
TGI (NCI-H522 lung): 11.3 µM
TGI (NCI/ADR-RES ovarian): 20.6 µM
TGI (OVCAR-3 ovarian): 29 µM
TGI (OVCAR-4 ovarian): 43.3 µM
TGI (OVCAR-5 ovarian): 38.8 µM
TGI (OVCAR-8 ovarian): 19 µM
TGI (PC-3 prostate): 26.3 µM
TGI (RPMI-8226 leukemia): 58.5 µM
TGI (RXF 393 renal): 22.6 µM
TGI (SF-268 CNS): 19.1 µM
TGI (SF-295 CNS): 25.9 µM
TGI (SF-539 CNS): 85.9 µM
TGI (SK-MEL-2 melanoma): 31.5 µM
TGI (SK-MEL-28 melanoma): 39.5 µM
TGI (SK-MEL-5 melanoma): 15.5 µM
TGI (SK-OV-3 ovarian): 18.1 µM
TGI (SN12C renal): 17.1 µM
TGI (SNB-19 CNS): 69.9 µM
TGI (SNB-75 CNS): 31.3 µM
TGI (SR leukemia): > 100 µM
TGI (SW-620 colon): > 56.1 µM
TGI (T-47D breast): > 31 µM
TGI (TK-10 renal): 32.5 µM
TGI (U251 CNS): 21.5 µM
TGI (UACC-257 melanoma): 51.9 µM
TGI (UACC-62 melanoma): 39.3 µM
TGI (UO-31 renal): > 45.5 µM
